# Reference: patent publication US20240131032A1, “AN ACTIVITY-GUIDED MAP OF ELECTROPHILE-CYSTEINE INTERACTIONS IN PRIMARY HUMAN IMMUNE CELLS” (The Scripps Research Institute, priority 2019, published 2024)
# Key:
# [1] = target: T1, ERCC3 (Homo sapiens, UniProt P19447); assay: isoTOP-ABPP and TMT-ABPP cysteine engagement, ERCC3; type: binding
# T1 construct: endogenous in cells; host or cells: primary human T cells
# T1 sequence (P19447 1-782): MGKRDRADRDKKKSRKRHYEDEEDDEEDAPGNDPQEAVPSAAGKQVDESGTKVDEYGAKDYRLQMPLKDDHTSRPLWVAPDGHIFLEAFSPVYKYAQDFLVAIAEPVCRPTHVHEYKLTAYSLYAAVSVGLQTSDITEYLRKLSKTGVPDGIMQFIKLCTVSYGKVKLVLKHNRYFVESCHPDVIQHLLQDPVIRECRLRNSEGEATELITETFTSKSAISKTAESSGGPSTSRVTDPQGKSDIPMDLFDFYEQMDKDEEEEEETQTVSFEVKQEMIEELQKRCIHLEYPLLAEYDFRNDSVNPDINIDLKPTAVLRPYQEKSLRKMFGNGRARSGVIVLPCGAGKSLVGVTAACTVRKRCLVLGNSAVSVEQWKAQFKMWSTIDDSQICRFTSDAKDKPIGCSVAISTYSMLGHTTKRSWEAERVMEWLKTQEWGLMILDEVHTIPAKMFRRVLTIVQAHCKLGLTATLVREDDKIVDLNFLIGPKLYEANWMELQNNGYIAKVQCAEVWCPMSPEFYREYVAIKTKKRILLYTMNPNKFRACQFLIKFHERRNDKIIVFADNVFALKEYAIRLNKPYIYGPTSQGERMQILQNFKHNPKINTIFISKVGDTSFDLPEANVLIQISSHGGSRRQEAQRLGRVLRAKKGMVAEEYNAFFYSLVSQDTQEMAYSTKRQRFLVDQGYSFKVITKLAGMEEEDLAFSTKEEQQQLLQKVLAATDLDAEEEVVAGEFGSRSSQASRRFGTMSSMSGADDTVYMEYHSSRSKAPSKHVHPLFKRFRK
# Procedure: (§1) Activated or expanded T cells were re-suspended in RPMI media supplemented with 10% FBS, L-glutamine (2 mM), penicillin (100 U/mL), and streptomycin (100 μg/mL) at 2×10^6 cells/mL. The compounds were added to cells as 1000×DMSO stocks and mixed well with the media by pipetting up and down after addition. The cells were kept at 37° C. in 5% CO2 containing incubators for 3 h (or otherwise specified times), then pelleted by centrifugation (524 g, 5 min, 4° C.), washed with cold PBS (10 mL) and transferred to Eppendorf tubes (1 mL PBS). The cells were pelleted again (524 g, 5 min, 4° C.), flash-frozen, and kept at −80° C. until further analysis.
# (§2) Activated or expanded primary human T cells were re-suspended in RPMI (1×10^6 cells/mL) containing 10% fetal bovine serum (FBS), penicillin (100 U/mL), streptomycin ([…]), and L-glutamine (2 mM). The cells were treated with DMSO or compounds for 3 h, pelleted (524 g, 5 min), washed with PBS, and lysed by sonication (2×8 pulses). Soluble and particulate proteomic fractions were separated by ultracentrifugation (100,000 g, 45 min), and protein concentration was normalized to 1.7 mg/mL using a standard DC protein assay (Bio-Rad). The resulting proteomes were analyzed by competitive isotopic Tandem Orthogonal Proteolysis Activity-Based Protein Profiling (isoTOP-ABPP).
# Samples (500 μL, 1.7 mg/mL) were treated with iodoacetamide alkyne (IA-alkyne, 5 μL of 10 mM stock in DMSO, final concentration: 100 μM) for 1 h at ambient temperature. Modified proteins were then conjugated to isotopically labeled, TEV-cleavable biotin tags (TEV-tags) using copper-catalyzed azide-alkyne cycloaddition reaction (CuAAC). Reagents for the CuAAC reaction were pre-mixed prior to their addition to the proteome samples. […]
# (§3) The heavy/light isoTOP-ABPP ratios (R values) for each unique peptide (DMSO/compound treated) were quantified with in-house CIMAGE software (Weerapana et al., 2010) using default parameters (3 MS1 acquisitions per peak and signal to noise threshold set to 2.5). Site-specific engagement of cysteine residues was assessed by blockade of IA-alkyne probe labeling. […] Ratios for unique peptide sequences were calculated for each experiment; overlapping peptides with the same modified cysteine (e.g., different charge states, elution times or tryptic termini) were grouped together and the median ratio was reported as the final ratio (R). […]
# [2] = target: T2, MYD88 (Homo sapiens, UniProt Q99836); assay: isoTOP-ABPP and TMT-ABPP cysteine engagement, MYD88; type: binding
# T2 construct: endogenous in cells
# Procedure: as §1
# as §2, with “(isoTOP-ABPP). […]” for “(isoTOP-ABPP).”
# as §3
# T2 sequence (Q99836 whole entry): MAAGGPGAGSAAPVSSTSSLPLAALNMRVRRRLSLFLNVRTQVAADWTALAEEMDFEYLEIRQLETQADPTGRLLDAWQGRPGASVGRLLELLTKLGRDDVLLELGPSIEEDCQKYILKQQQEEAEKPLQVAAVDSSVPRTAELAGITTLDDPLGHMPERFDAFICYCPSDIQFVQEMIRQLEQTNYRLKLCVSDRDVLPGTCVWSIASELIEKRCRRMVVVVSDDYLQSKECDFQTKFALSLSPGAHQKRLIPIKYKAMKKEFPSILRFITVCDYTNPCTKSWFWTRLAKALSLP
Compound,"efficacy at ERCC3 C342, BPK-21 with respect to BPK-25 [1]",engagement of C342 of ERCC3 [1],labeling of C203 of MYD88 [2]
C=CC(=O)N(Cc1cccc(Cl)c1Cl)c1ccc(Oc2ccccc2)c(C(F)(F)F)c1 [BPK-21],higher efficacy,alkylating C342,–
C=CC(=O)N(Cc1cccc(Cl)n1)c1ccc(C(=O)Nc2ccccc2)nc1 [BPK-25],–,alkylating C342,direct labeling of C203
